Measured values reported in patent US6319702A, “Nucleic acids encoding mutant human carboxypeptidase A enzymes” (Glaxo Wellcome, Inc., priority 1993, dated 2001).
Where two headings read alike, the source gives them in different places.

Legend:
268ala = experiment: Enzyme kinetics of prodrugs with 268ala mutant of human CPA1 (coupled assay); format: biochemical; settings: 25° C., pH 7.4
Text: (§1) As indicated herein, the in vivo stable prodrug of the present invention should be a better substrate for a mutant enzyme than the corresponding wild type enzyme in order for the stable prodrug to be activated selectively at the tumour. […] The most relevant kinetic constant in the table is the kcat/Km, which provides an estimate of the second order rate constant for the enzyme catalyzed conversion of prodrug to methotrexate. Thus, the larger the kcat/Km, the more efficient the enzyme with a particular substrate. […] Thus, the single mutation at 268 from thr to gly converted very poor substrates in the wild type enzyme to excellent substrates in the mutant enzyme. […] Thus, the compounds are much better substrates for the mutant enzyme than the wild type enzyme which permits very specific tumor targeted activation of the nontoxic, stable prodrug to the active agent.
(§2) Kinetics were determined by a modification of the coupled assay of Kuefner, et al (1989) Biochemistry 28 2288-2297 in which the product MTX is converted by excess carboxypeptidase G to the pteroate of MTX. In this assay the reaction is followed spectrophotometrically at 315 nm; at this wavelength the change in molar absorbtivity for the coupled reaction was determined to be 9.57 mM^-1 cm^-1. Assays were performed at 25° C. in 25 mM tris-HCl, 100 mM NaCl, pH 7.4. Prodrugs were preincubated at 25° C. with buffer and 17 milliunits of Sigma #C-9658 carboxypeptidase G in 1 ml total volume. Assay was initiated with carboxypeptidase A or the appropriate mutant. Initial velocities were obtained, and standard Michaelis-Menten calculations were used to determine kinetic constants (in Biochemistry, Lehninger, A. L. 1970, Worth Publishers, Inc, NY).

268gly = experiment: Enzyme kinetics of prodrugs with 268gly mutant of human CPA1 (coupled assay); format: biochemical; settings: 268gly; 25° C., pH 7.4
Text: as §1, §2

in vivo = settings: mouse, iv
[1] = molecular target: T1, wild type human carboxypeptidase A1 (Homo sapiens, UniProt P15085); experiment: Enzyme kinetics of prodrugs with wild type human carboxypeptidase A1 (coupled assay); format: biochemical
T1 sequence (P15085 111-419): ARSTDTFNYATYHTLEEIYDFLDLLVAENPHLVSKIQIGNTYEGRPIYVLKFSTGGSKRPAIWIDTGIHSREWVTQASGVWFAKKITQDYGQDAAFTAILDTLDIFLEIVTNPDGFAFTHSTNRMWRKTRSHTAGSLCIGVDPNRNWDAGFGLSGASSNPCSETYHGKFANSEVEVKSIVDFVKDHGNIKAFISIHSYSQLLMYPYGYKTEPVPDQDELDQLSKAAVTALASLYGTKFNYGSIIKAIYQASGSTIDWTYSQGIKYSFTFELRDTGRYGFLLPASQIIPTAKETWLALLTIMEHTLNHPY
Text: as §1, §2

[2] = Stability and biodistribution of prodrugs in vivo (HPLC of plasma and tissues); design: species or system mice (CD-1 nude; BALB/C where indicated); settings: for concentration of prodrug in cecum / concentration of prodrug in feces / concentration of prodrug in kidney / concentration of prodrug in large intestine / concentration of prodrug in liver / concentration of prodrug in small intestine / concentration of prodrug in spleen / concentration of prodrug in tumor / remaining at 0.5 h / remaining at 2 h / concentration at 0.5 h: 50 mg/kg i.p. or i.v., CD-1 nude mice; for stability in vivo (in words): mice; for stability in vivo (in words) / remaining at 0.5 h / remaining at 2 h / concentration at 0.5 h: 50 mg/kg; for remaining at 0.5 h / remaining at 2 h / concentration at 0.5 h: mouse; for concentration at 0.5 h: read-out: concentration of prodrug in plasma
mutant enzyme = experiment: Substrate behaviour with mutant enzyme; format: biochemical, human
Text: This type of compound is not useful for ADEPT.

[3] = cecum, CECUM, 30 min, read-out: stability: percentage of material observed as intact prodrug, cecum
[4] = cecum, CECUM, 120 min, read-out: stability: percentage of material observed as intact prodrug, cecum
[5] = feces, FECES, 30 min, read-out: stability: percentage of material observed as intact prodrug, feces (converted)
[6] = feces, FECES, 120 min, read-out: stability: percentage of material observed as intact prodrug, feces
[7] = kidney, KIDNEY, 30 min, read-out: stability: percentage of material observed as intact prodrug, kidney
[8] = large intestine, LARGE INTESTINE, 30 min, read-out: stability: percentage of material observed as intact prodrug, large intestine
[9] = large intestine, LARGE INTESTINE, 120 min, read-out: stability: percentage of material observed as intact prodrug, large intestine
[10] = liver, LIVER, 30 min, read-out: stability: percentage of material observed as intact prodrug, liver (converted)
[11] = liver, LIVER, 120 min, read-out: stability: percentage of material observed as intact prodrug, liver
[12] = plasma, PLASMA, 30 min, read-out: stability: percentage of material observed as intact prodrug, plasma
[13] = small intestine, SMALL INTESTINE, 30 min, read-out: stability: percentage of material observed as intact prodrug, small intestine
[14] = small intestine, SMALL INTESTINE, 120 min, read-out: stability: percentage of material observed as intact prodrug, small intestine
[15] = spleen, SPLEEN, 30 min, read-out: stability: percentage of material observed as intact prodrug, spleen

SMILES	concentration of prodrug in cecum ([2]; CECUM, 30 min)	concentration of prodrug in cecum ([2]; CECUM, 120 min) [nmol/g]	concentration of prodrug in feces ([2]; FECES, 30 min) [nmol/g]	concentration of prodrug in feces ([2]; FECES, 120 min) [nmol/g]	concentration of prodrug in kidney ([2]; KIDNEY, 30 min) [nmol/g]	concentration of prodrug in large intestine ([2]; LARGE INTESTINE, 30 min) [nmol/g]	concentration of prodrug in large intestine ([2]; LARGE INTESTINE, 120 min) [nmol/g]	concentration of prodrug in liver ([2]; LIVER, 30 min) [nmol/g]	concentration of prodrug in liver ([2]; LIVER, 120 min) [nmol/g]	concentration of prodrug in small intestine ([2]; SMALL INTESTINE, 30 min) [nmol/g]	concentration of prodrug in small intestine ([2]; SMALL INTESTINE, 120 min) [nmol/g]	concentration of prodrug in spleen ([2]; SPLEEN, 30 min) [nmol/g]	stability in vivo (in words) [2]	remaining at 0.5 h [2, 3] [%]	remaining at 2 h [2, 4] [%]	remaining at 0.5 h [2, 5] [%]	remaining at 2 h [2, 6] [%]	remaining at 0.5 h [2, 7] [%]	remaining at 0.5 h [2, 8] [%]	remaining at 2 h [2, 9] [%]	other results
CN(Cc1cnc2nc(N)nc(N)c2n1)c1ccc(C(=O)N[C@@H](CCC(=O)O)C(=O)N[C@@H](Cc2cccc(C3CCCC3)c2)C(=O)O)cc1	–	–	–	–	–	–	–	–	–	–	–	–	–	–	–	–	–	–	–	–	Km (268ala): 31 µM; kcat (268ala): 0.001 s⁻¹; Km (268gly): 15 µM; kcat (268gly): 1.4 s⁻¹; MTD (in vivo): > 40 mg/kg; NOAEL (in vivo): ≥ 40 mg/kg; kcat (symbol ND) ([1]; Human CPA1, rate too slow to assay): ND (not determined; rate to slow assay. kcat ≤ 0.0005/sec.)
CN(Cc1cnc2nc(N)nc(N)c2n1)c1ccc(C(=O)N[C@@H](CCC(=O)O)C(=O)N[C@@H](Cc2cccc(C3CCC3)c2)C(=O)O)cc1 [Prodrug 11]	4.5 nmol/g	0.8	426.8	389.8	7.3	2.7	4.4	53.8	47.8	301.3	140.0	2.7	stable in vivo	100	100	92.3	67.9	83.5	74.5	85	concentration of prodrug in kidney ([2]; KIDNEY, 120 min): 3.0 nmol/g; concentration of prodrug in tumor ([2]; TUMOR, 30 min): 4.8 nmol/g; concentration of prodrug in tumor ([2]; TUMOR, 120 min): 2.4 nmol/g; remaining at 2 h ([2]; kidney, KIDNEY, 120 min, read-out: stability: percentage of material observed as intact prodrug, kidney): 82.3%; remaining at 0.5 h [2, 10]: 81.3%; remaining at 2 h [2, 11]: 73.3%; concentration at 0.5 h ([2]; plasma, PLASMA, 30 min): 22.2 µM; remaining at 0.5 h [2, 12]: 97.1%; remaining at 0.5 h [2, 13]: 86.7%; remaining at 2 h [2, 14]: 67.7%; remaining at 0.5 h [2, 15]: 96.5%; remaining at 0.5 h ([2]; tumor, TUMOR, 30 min, read-out: stability: percentage of material observed as intact prodrug, tumor): 100%; remaining at 2 h ([2]; tumor, TUMOR, 120 min, read-out: stability: percentage of material observed as intact prodrug, tumor): 88.1%; substrate for a mutant enzyme (in words) (mutant enzyme): good substrates for a mutant enzyme; substrate for wild type CPA (in words) [1]: not for the wild type enzyme
Nc1nc(N)c(CCCNc2ccc(C(=O)N[C@@H](CCC(=O)O)C(=O)N[C@@H](Cc3cccc(C4CCCC4)c3)C(=O)O)cc2)c(=O)[nH]1 [Prodrug 14, N-(4-((3(2,4-diamino-1,6-dihydro-6-oxo-5-pyrimidinyl)propyl)amino)benzoyl)-L-glutam-1-yl-3-cyclopentyl-L-phenylalanine]	4.l	65.3	535.0	932.8	4.6	9.4	34.6	22.5	42.1	218.3	127.8	2.4	stable in vivo	100	48.8	90.7	88	100	100	76.8	remaining at 0.5 h [2, 10]: 100%; remaining at 2 h [2, 11]: 100%; concentration at 0.5 h ([2]; plasma, PLASMA, 30 min): 1.1 µM; remaining at 0.5 h [2, 12]: 100%; remaining at 0.5 h [2, 13]: 100%; remaining at 2 h [2, 14]: 100%; remaining at 0.5 h [2, 15]: 100%; substrate for a mutant enzyme (in words) (mutant enzyme): good substrates for a mutant enzyme; substrate for wild type CPA (in words) [1]: not for the wild type enzyme
